# Experimental data taken from patent US11712468B2, “CD70 combination therapy” (Argenx BV, priority 2018, dated 2023).
# Like-named read-outs stand apart in the source and are kept apart here.
# B1: cusatuzumab: IgG1 anti-CD70 antibody, ADCC-enhanced humanized monoclonal; VH SEQ ID NO: 4, VL SEQ ID NO: 8 (antibody, V domains shown)
# VH: EVQLVESGGGLVQPGGSLRLSCAASGFTFSVYYMNWVRQAPGKGLEWVSDINNEGGTTYYADSVKGRFTISRDNSKNSLYLQMNSLRAEDTAVYYCARDAGYSNHVPIFDSWGQGTLVTVSS
# VL: QAVVTQEPSLTVSPGGTVTLTCGLKSGSVTSDNFPTWYQQTPGQAPRLLIYNTNTRHSGVPDRFSGSILGNKAALTITGAQADDEAEYFCALFISNPSVEFGGGTQLTVLG
# How the values were obtained:
# MV4-11 AML cells = assay: AML cell killing with NK cells, Annexin V viable cell count at 72 h (IC50 and Chou-Talalay synergy); type: cell-based; conditions: Homo sapiens
# Procedure: (§1) Initially, cells from each AML cell line were treated with decitabine, cusatuzumab or venetoclax alone to determine the IC50 for each treatment. 10^5 AML cells were treated with a concentration range of cusatuzumab (0.1, 1.0 and 10 μg/ml), venetoclax (0.5 and 200 nM), decitabine (0.01-1 μM) or vehicle in the presence of CFSE-labelled NK cells derived from healthy individuals (ratio 1:1). The assay was performed in triplicate.
# (§2) To determine synergy, a constant combination ratio experiment was carried out at equipotency ratio (IC501/IC502, or IC501/IC502/IC503) so that each drug contributed equally to cell killing. Combination drug dose responses were assessed in two technical replicates for every dose/dose combination as previously described (Riether et al., Sci Transl Med (2015) 7(298); 298ra119.
# (§3) NOMO-1, MOLM-13, NB-4 or MV4-11 AML cell lines were treated with vehicle, decitabine, cusatuzumab or venetoclax alone, a double combination of venetoclax and decitabine, decitabine and cusatuzumab, or venetoclax and cusatuzumab, or a triple combination of decitabine, cusatuzumab and venetoclax. All combinations were tested at three high and three low concentrations (above and below the identified IC50s) and in a constant ratio. Cells were cultured in the presence of CFSE-labeled NK cells (ratio 1:1). Viable AML cell numbers were assessed 72 hours later by Annexin V staining, and the effect of drug treatment was calculated as the ratio of surviving cells to vehicle-treated cells.
# (§4) The Combination Index (CI) was calculated and plotted against Fraction affected (Fa) using CompuSyn software. The resultant plot of the combination index (CI) against fraction affected (Fa) for all combinations is shown in FIG. 1, with the individual combinations shown in FIGS. 2A-2D.
# (§5) Fa values of 0, 0.5, and 1 correspond to 0, 50, and 100% killed cells. A CI of <1, 1, >1 represents synergism, additivity, and antagonism, respectively. IC50s indicates Fa values reached for the combination of respective IC50 concentrations. The principles and advantages of the Fa-CI plot method of assessing synergism are provided in, for example, Chou T C, Cancer Research (2010) 70(2); 440-6 and Zhao et al. Front Biosci (Elite Ed). (2010) 2; 241-249 (each of which is incorporated herein by reference in its entirety).
# NOMO-1 AML cells = assay: as above; type: cell-based; conditions: Homo sapiens
# Procedure: as §1, §2, §3, §4, §5
# NB4 AML cells = assay: as above; type: cell-based
# Procedure: as §1, §2, §3, §4, §5
# MOLM-13 AML cells = assay: as above; type: cell-based; conditions: Homo sapiens
# Procedure: as §1, §2, §3, §4, §5
# CD70 expression = assay: CD70 mRNA and protein expression in AML cells; type: cell-based; conditions: AML cells (MOLM-13, NOMO-1) in the presence of venetoclax
# Procedure: FIG. 9: CD70 mRNA expression (as percentage of housekeeping gene) following treatment with vehicle (Veh) or venetoclax (Ven) for 24 or 48 hrs.
# FIG. 10: CD70 protein and mRNA expression by MOLM-13 and NOMO-1 cells in the presence (gray bars) and absence (black bars) of venetoclax. Significance was determined using a Student's t-test. MFI=mean fluorescence intensity. *** P<0.001.
# The effect of venetoclax on expression of CD70 at both the mRNA and protein level was assessed.
# [1] = cited from earlier work
# CD70 = biological target: T1, CD70 (Homo sapiens, UniProt P32970); conditions: Silence et al. (2014); cited from earlier work
# T1 sequence (P32970 1-193): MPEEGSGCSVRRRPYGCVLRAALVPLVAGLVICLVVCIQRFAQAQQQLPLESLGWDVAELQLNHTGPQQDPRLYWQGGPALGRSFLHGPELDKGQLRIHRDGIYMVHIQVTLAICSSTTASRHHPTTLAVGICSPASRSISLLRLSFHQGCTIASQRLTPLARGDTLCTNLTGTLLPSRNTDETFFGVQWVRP
# [2] = system: CD70-expressing tumour cells; conditions: Silence et al. (2014); cited from earlier work
# CD27 signalling = conditions: cited from earlier work
molecule,measurement,setting,value
Nc1ncn([C@H]2C[C@H](O)[C@@H](CO)O2)c(=O)n1 [decitabine],IC50,MV4-11 AML cells; MV4-11,2.36 nM
same,IC50,NOMO-1 AML cells; NOMO-1,0.001 nM
same,IC50,NB4 AML cells,4.8 nM
same,IC50,MOLM-13 AML cells; MOLM-13,0.01 nM
"CC1(C)CCC(CN2CCN(c3ccc(C(=O)NS(=O)(=O)c4ccc(NCC5CCOCC5)c([N+](=O)[O-])c4)c(Oc4cnc5[nH]ccc5c4)c3)CC2)=C(c2ccc(Cl)cc2)C1 [venetoclax, 4-(4-{[2-(4-chlorophenyl)-4,4dimethylcyclohex-1-en-1-yl]methyl}piperazin-1-yl)-N-({3-nitro-4-[(tetrahydro-2H-pyran-4ylmethyl)amino]phenyl}sulfonyl)-2-(1H-pyrrolo[2,3-b]pyridin-5-yloxy)benzamide]",IC50,"MV4-11 AML cells; MV4-11, monotherapy, NK cells ratio 1:1, read-out: IC50",5 nM
same,IC50,"NOMO-1 AML cells; NOMO-1, monotherapy, NK cells ratio 1:1, read-out: IC50",3.4 nM
same,IC50,"NB4 AML cells; NB4, monotherapy, NK cells ratio 1:1, read-out: IC50",17.3 nM
same,IC50,"MOLM-13 AML cells; MOLM-13, monotherapy, NK cells ratio 1:1, read-out: IC50",0.42 nM
same,CD70 expression (mRNA and protein),CD70 expression,up-regulated
same,Aqueous solubility,[1],very low aqueous solubility
B1,Interaction of CD70 with CD27,CD70,inhibit the interaction of CD70 with its receptor CD27
same,Lysis of CD70-expressing tumour cells via ADCC and CDC,[2],lyse CD70-expressing tumour cells
same,CD70-induced CD27 signalling,CD27 signalling,inhibit CD70-induced CD27 signalling
